The structures appear in SMILES notation. Like-named read-outs stand apart in the source and are kept apart here.

By IC50 is commonly meant the concentration that gives 50% inhibition.

The assay relates to Onchocerca gutturosa Adult Male Worms. Put plainly: Onchocerciasis in vitro screening model, worm motility score. It is filed as cell-based. The conditions noted are these: read-out: O. gutturosa activity level (IC50 or MED).
Setting [1] is: in vitro, Onchocerca gutturosa adult male worms, class A/B/C.
[2] abbreviates: Onchocerca gutturosa, Table 1 O. gutturosa, levels A/B/C, motility or MTT readout not specified.

With `CC(=O)N(C)c1cnc(Nc2n[nH]c(-c3cc4c(cn3)N(C(C)C)CC4)n2)c(C(F)(F)F)c1` [Compound 294, N-(6-(5-(1-isopropyl-2,3-dihydro-1H-pyrrolo[2,3-c]pyridin-5-yl)-1H-1,2,4-triazol-3-ylamino)-5-(trifluoromethyl)pyridin-3-yl)-N-methylacetamide], the half-inhibitory concentration (IC50) under setting [1] was 500 to 5000 nM. Consider `Cc1cccnc1Nc1nc(-c2ccc(OC3CCN(C(=O)C(C)C)CC3)cn2)ns1` [Compound 265, 2-methyl-1-(4-(6-(5-(3-methylpyridin-2-ylamino)-1,2,4-thiadiazol-3-yl)pyridin-3-yloxy)piperidin-1-yl)propan-1-one], for which the IC50 under setting [1] is 500 to 5000 nM. With `Cc1cccnc1Nc1nc(-c2ccc3c(n2)CN(CC2CC2)C3)ns1` [Compound 114, 3-(6-(cyclo-propylmethyl)-6,7-dihydro-5H-pyrrolo[3,4-b]pyridin-2-yl)-N-(3-methylpyridin-2-yl)-1,2,4-thiadiazol-5-amine], under setting [2], the 50% inhibitory concentration (IC50) fell in the range of 500 to 5000 nM.

Turning to `FC(F)(F)c1ccnc(Nc2nc(-c3ccccn3)no2)c1` [Compound 28, 3-(pyridin-2-yl)-N-(4-(trifluoro-methyl)pyridin-2-yl)-1,2,4-o xadiazol-5-amine], the concentration for half-maximal inhibition (IC50) under setting [2] was less than 200 nM. Still for that read-out and setting: next, `CC(C)Oc1ccc(-c2nsc(Nc3ncccc3N(C)C)n2)nc1` [Compound 56, N2-(3-(5-isoprop-oxypyridin-2-yl)-1,2,4-thiadiazol-5-yl)-N3,N3 - dimethyl-pyridine-2,3-diamine]: 500 to 5000 nM. The same measure, in the same setting: then `CN1CCC(Oc2ccc(-c3nsc(Nc4ncccn4)n3)nc2)CC1` [Compound 36, 3-(5-(1-methyl-piperidin-4-yloxy)pyridin-2-yl)-N-(pyrimidin-2-yl)-1,2,4-thiadiazol-5-amine], with 500 to 5000 nM; and `COc1ccc(-c2nsc(Nc3ccc(C4CCCC4)cn3)n2)nc1` [Compound 68, N-(5-cyclopentyl-pyridin-2-yl)-3-(5-methoxypyridin-2-yl)-1,2,4-thiadiazol-5-amine], with 200 to 500 nM. With `CC(C)Oc1cnc(-c2nsc(Nc3ncccc3C(=O)N(C)C3CC3)n2)cc1C(F)(F)F` [Compound 263, N-cyclo-propyl-2-(3-(5-isopropoxy-4-(trifluoro-methyl)pyridin-2-yl)-1,2,4-thiadiazol-5-ylamino)-N-methyl-nicotinamide], the half-inhibitory concentration (IC50) under setting [1] was in the range of 500 to 5000 nM. As to `CC(C)Oc1ccnc(-c2nnc(Nc3ccc(C(C)C)cn3)s2)c1` [Compound 232, 5-(4-isopropoxy-pyridin-2-yl)-N-(5-isopropyl-pyridin-2-yl)-1,3,4-thiadiazol-2-amine], the 50% inhibitory concentration (IC50) under setting [1] lay in the range of 500 to 5000 nM. On the same count and under the same terms, then `CC(=O)N(C)c1cccnc1Nc1nc(-c2cc3c(cn2)CN(C(C)C)C3)ns1` [Compound 310, N-(2-(3-(2-isopropyl-2,3-dihydro-1H-pyrrolo[3,4-c]pyridin-6-yl)-1,2,4-thiadiazol-5-ylamino)pyridin-3-yl)-N-methylacetamide], with 500 to 5000 nM. With `Cc1cccnc1Nc1nc(-c2cc(C3CCN(C)CC3)ccn2)ns1` [Compound 44, 3-(4-(1-methyl-piperidin-4-yl)pyridin-2-yl)-N-(3-methylpyridin-2-yl)-1,2,4-thiadiazol-5-amine], under setting [2], the IC50 was less than 200 nM. For `CC(=O)N(C)c1cc(C(F)F)cnc1Nc1nc(-c2cc3c(cn2)N(C)CC3)ns1` [Compound 330, N-(5-(difluoro-methyl)-2-(3-(1-methyl-2,3-dihydro-1H-pyrrolo[2,3-c]pyridin-5-yl)-1,2,4-thiadiazol-5-ylamino)pyridin-3-yl)-N-methylacetamide], the 50% inhibitory concentration (IC50) under setting [1] was in the range of 500 to 5000 nM.

Turning to `CC(C)Oc1ccc(-c2nsc(Nc3ncccc3N(C)C(=O)C3CCCC3)n2)nc1` [Compound 172, N-(2-(3-(5-isopropoxy-pyridin-2-yl)-1,2,4-thiadiazol-5-ylamino)pyridin-3-yl)-N-methylcyclo-pentane-carboxamide], the half-inhibitory concentration (IC50) under setting [2] was less than 200 nM. As for `CC(=O)N(C)c1nccnc1Nc1nc(-c2cc3c(cn2)N(C(C)C)CC3)ns1` [Compound 309, N-(3-(3-(1-isopropyl-2,3-dihydro-1H-pyrrolo[2,3-c]pyridin-5-yl)-1,2,4-thiadiazol-5-ylamino)pyrazin-2-yl)-N-methylacetamide], under setting [1], the IC50 was less than 200 nM. On to `CC(C)Oc1ccc(-c2nsc(Nc3ncccc3C(C)C)n2)nc1` [Compound 115, 3-(5-isopropoxy-pyridin-2-yl)-N-(3-isopropyl-pyridin-2-yl)-1,2,4-thiadiazol-5-amine], for which the half-inhibitory concentration (IC50) under setting [2] is less than 200 nM. On to `COc1ccnc(-c2nsc(Nc3ncc(C(F)(F)F)cc3N(C)C(C)=O)n2)c1` [Compound 318, N-(2-(3-(4-methoxypyridin-2-yl)-1,2,4-thiadiazol-5-ylamino)-5-(trifluoromethyl)pyridin-3-yl)-N-methylacetamide], for which, under setting [1], the 50% inhibitory concentration (IC50) was less than 200 nM. Same read-out and setting: then `CC(=O)N(C)c1cc(C(F)(F)F)cnc1Nc1nc(-c2ncc(OC(C)C)cn2)ns1` [Compound 316, N-(2-(3-(5-isopropoxy-pyrimidin-2-yl)-1,2,4-thiadiazol-5-ylamino)-5-(trifluoromethyl)pyridin-3-yl)-N-methylacetamide], with 500 to 5000 nM. On the same count and under the same terms, next, `Cc1cccnc1Nc1nnc(-c2ccc(OC3CCOCC3)cn2)[nH]1` [Compound 258, 3-methyl-N-(5-(5-(tetrahydro-2H-pyran-4-yloxy)pyridin-2-yl)-4H-1,2,4-triazol-3-yl) pyridin-2-amine]: less than 200 nM. In the case of `CC(C)Oc1cnc(-c2nsc(Nc3ncccc3N(C)C(=O)C3CC3)n2)cc1C(F)(F)F` [Compound 186, N-(2-(3-(5-isopropoxy-4-(trifluoro-methyl)pyridin-2-yl)-1,2,4-thiadiazol-5-ylamino)pyridin-3-yl)-N-methylcyclo-propanecarbox-amide], the IC50 under setting [2] was 500 to 5000 nM. Consider `CN(C)c1cccnc1Nc1nc(-c2ncccc2OC2CC2)ns1` [Compound 117, N2-(3-(3-cycloprop-oxypyridin-2-yl)-1,2,4-thiadiazol-5-yl)-N3,N3-dimethyl-pyridine-2,3-diamine], for which the IC50 under setting [2] is 200 to 500 nM. With `CC(=O)Nc1ccc(-c2nsc(Nc3ncccc3C)n2)nc1` [Compound 29, N-(6-(5-(3-methylpyridin-2-ylamino)-1,2,4-thiadiazol-3-yl)pyridin-3-yl) acetamide], the half-inhibitory concentration (IC50) under setting [2] fell in the range of 200 to 500 nM. On to `Cc1cnc(Nc2nc(-c3cc(C(=O)N(C)C)c(OC(C)C)cn3)ns2)c(C(F)(F)F)c1` [Compound 254, 5-isopropoxy-N,N-dimethyl-2-(5-(5-methyl-3-(trifluoromethyl)pyridin-2-ylamino)-1,2,4-thiadiazol-3-yl)isonico-tinamide], for which the IC50 under setting [1] lay within 500 to 5000 nM. On to `CCOc1ccc(Nc2nc(-c3cc(OC)ccn3)no2)nc1` [Compound 35, N-(5-ethoxy-pyridin-2-yl)-3-(4-methoxy-pyridin-2-yl)-1,2,4-oxadiazol-5-amine], for which the IC50 under setting [2] is less than 200 nM. Same read-out and setting: next, `CC(C)c1cccnc1Nc1nc(-c2ccc(OC3CC3)cn2)ns1` [Compound 74, 3-(5-cyclopropoxy-pyridin-2-yl)-N-(3-isopropylpyridin-2-yl)-1,2,4-thiadiazol-5-amine]: less than 200 nM. Turning to `CC(=O)N(C)c1cccnc1Nc1nc(-c2ccc(NC34CC(C3)C4)cn2)ns1` [Compound 207, N-(2-(3-(5-(bicyclo [1.1.1]pentan-1-ylamino)pyridin-2-yl)-1,2,4-thiadiazol-5-ylamino)pyridin-3-yl)-N-methylacetamide], the concentration for half-maximal inhibition (IC50) under setting [1] was in the range of 500 to 5000 nM.

(Values after patent US11505548B2, “Heterocyclic compounds and their use for treatment of helminthic infections and diseases” (Celgene Corporation, priority 2019, dated 2022).)
